Measured values: patent US11497734B2, “Dual inhibitors of TIM-3 and PD-1 pathways” (Aurigene Discovery Technologies Limited, priority 2017, dated 2022)

What was measured:
PD-L1 = biological target: T1, PD-L1 (Mus musculus, UniProt Q9EP73); experiment: Rescue of mouse splenocyte proliferation in the presence of recombinant PD-L1 (CFSE proliferation assay); assay type: cell-based; settings: 100 nM compound; anti-CD3/CD28 stimulated mouse splenocytes + PD-L1; 72 h; read-out: PDL1 (rescue of proliferation @ 100 nM)
T1 construct: Fc (Fc chimera); purchased R&D Systems 1019-B7-100
Procedure: Example 1: Rescue of Mouse Splenocyte Proliferation in the Presence of Recombinant PD-L1/PD-L2
Recombinant mouse PD-L1 (rm-PDL-1, cat no: 1019-B7-100; R&D Systems) were used as the source of PD-L1.
Mouse splenocytes harvested from 6-8 weeks old C57 BL6 mice; RPMI 1640 (GIBCO, Cat #11875); DMEM with high glucose (GIBCO, Cat #D6429); Fetal Bovine Serum [Hyclone, Cat #SH30071.03]; Penicillin (10000 unit/mL)-Streptomycin (10,000 μg/mL) Liquid (GIBCO, Cat #15140-122); MEM Sodium Pyruvate solution 100 mM (100×)), Liquid (GIBCO, Cat #11360); Nonessential amino acid (GIBCO, Cat #11140); L-Glutamine (GIBCO, Cat #25030); Anti-CD3 antibody (eBiosciences—16-0032); Anti-CD28 antibody (eBiosciences—16-0281); ACK lysis buffer (1 mL) (GIBCO, Cat #-A10492); Histopaque (density—1.083 gm/mL) (SIGMA 10831); Trypan blue solution (SIGMA-T8154); 2 mL Norm Ject Luer Lock syringe-(Sigma 2014-12); 40 μm nylon cell strainer (BD FALCON 35230); Hemacytometer (Bright line-SIGMA Z359629); FACS Buffer (PBS/0.1% BSA): Phosphate Buffered Saline (PBS) pH 7.2 (HiMedia TS1006) with 0.1% Bovine Serum Albumin (BSA) (SIGMA A7050) and sodium azide (SIGMA 08591); 5 mM stock solution of CFSE: CFSE stock solution was prepared by diluting lyophilized CFSE with 180 μL of Dimethyl sulfoxide (DMSO C2H6SO, SIGMA-D-5879) and aliquoted in to tubes for further use. Working concentrations were titrated from 10 μM to 1 μM. (eBioscience-650850-85); 0.05% Trypsin and 0.02% EDTA (SIGMA 59417C); 96-well format ELISA plates (Corning CLS3390); BD FACS caliber (E6016); Recombinant mouse B7-H1/PDL1 Fc Chimera, (rm-PD-L1 cat no: 1019-B7-100).
Splenocytes harvested in a 50 mL falcon tube by mashing mouse spleen in a 40 μm cell strainer were further treated with 1 mL ACK lysis buffer for 5 min at room temperature. After washing with 9 mL of RPMI complete media, cells were re-suspended in 3 mL of 1×PBS in a 15 mL tube. 3 mL of Histopaque was added carefully to the bottom of the tube without disturbing overlaying splenocyte suspension. After centrifuging at 800×g for 20 min at room temperature, the opaque layer of splenocytes was collected carefully without disturbing/mixing the layers. Splenocytes were washed twice with cold 1×PBS followed by total cell counting using Trypan Blue exclusion method and used further for cell based assays.
Splenocytes were cultured in RPMI complete media (RPMI+10% fetal bovine serum+1 mM sodium pyruvate+10,000 units/mL penicillin and 10,000 μg/mL streptomycin) and maintained in a CO2 incubator with 5% CO2 at 37° C.
CFSE Proliferation Assay: CFSE is a dye that passively diffuses into cells and hinds to intracellular proteins. 1×10^6 cells/mL of harvested splenocytes were treated with 5 μM of CFSE in pre-warmed 1×PBS/0.1% BSA solution for 10 min at 37° C. Excess CFSE was quenched using 5 volumes of ice-cold culture media to the cells and incubated on ice for 5 min. CFSE labeled splenocytes were further given three washes with ice cold complete RPMI media. CFSE labeled 1×10^5 splenocytes added to wells containing either MDA-MB231 cells (1×10^5 cells cultured in high glucose DMEM medium) or recombinant human PDL-1 (100 ng/mL) and test compounds. Splenocytes were stimulated with anti-mouse CD3 and anti-mouse CD28 antibody (1 μg/mL each), and the culture was further incubated for 72 h at 37° C. with 5% CO2. Cells were harvested and washed thrice with ice cold FACS buffer and % proliferation was analysed by flow cytometry with 488 nm excitation and 521 nm emission filters. Data Compilation, Processing and Inference: […]

recombinant human TIM-3 = experiment: Human PBMC IFN-γ release assay in the presence of recombinant TIM-3; assay type: cell-based; settings: 100 nM compound, plate-coated TIM-3 + anti-CD3, anti-CD28, 72 h
Procedure: Vehicle: Milli Q water; RPMI 1640 (GIBCO, Cat #11875); Fetal Bovine Serum [Hyclone, Cat #SH30071.03]; Penicillin (10000 unit/ml)-Streptomycin (10,000 μg/ml) liquid (GIBCO, Cat #15140-122); MEM Sodium Pyruvate solution 100 mM (100×). Liquid (GIBCO, Cat #11360); Nonessential amino acid (GIBCO, Cat #11140); L-Glutamine (GIBCO, Cat #25030); Recombinant human TIM-3 (rhGi24 TIM-3/B7-H5 Fc chimera (R&D systems, cat no: 7126-B7); Anti-h/m Gi24/TIM-3/B7-H5 purified mouse monoclonal IgG2B (R&D systems, cat no: MAB7126); Mouse IgG2B isotype control (R&D Systems cat no: MAB 004); Anti human-CD3 antibody (eBiosciences—16-0039); Anti human-CD28 antibody (eBiosciences—16-0289); Histopaque (density-1.077 gm/ml) (SIGMA 1077); Trypan Blue solution (SIGMA-T8154); Hemacytometer (Bright line-SIGMA Z359629); FACS Buffer containing Phosphate Buffered Saline (PBS) pH 7.2; (HiMedia TS1006) with 0.1% Bovine Serum Albumin (BSA) (SIGMA A7050) and sodium azide (SIGMA 08591); 96-well format ELISA plates (Corning 3599); 96-well format ELISA plates (Corning 3361); BD FACS caliber (E6016); Centrifuge (Eppendorf 5810 R); Human IFN-'γ Duo set ELISA kit (R&D Systems; cat no: DY-285).
Human PBMC IFN-γ Release Assay
96-well cell culture plates were pre-coated with recombinant human TIM-3 (2.5 μg/ml) and anti-human CD3 (2.5 μg/ml), and stored at 4° C. overnight. Anti-human TIM-3 and isotype control antibodies were either coated along with the TIM-3 or incubated for 30 min next day before addition of cells. On the next day, plates were washed with 1× PBS and then incubated with test compounds for 30 min. Isolated PBMC (0.1×10^6 cells/well) and anti-human CD28 antibodies (1 μg/ml) were added to the wells. The culture was further incubated for 72 h at 37° C. with 5% CO2. After 72 h of incubation the cell culture supernatants were collected after brief centrifugation at 200 g×5 min at 4° C. and processed for human IFN-γ measurement by ELISA following manufacturer's protocol (R&D Systems; DY-285).
In brief, 96-well ELISA plates were coated with 100 μl/well of capture antibody in coating buffer and incubated overnight at 4° C. Plates were washed five times with wash buffer and further blocked with 200 μl of 1× assay diluents for 1 hr at RT. Following wash step, 100 μl of cell culture supernatants were added to wells and further incubated for 2 hr at RT. Appropriate standards were also included. After wash step, plate was incubated for one hour with 100 μl/well of detection antibody. The wash step was repeated and the plate was incubated for 30 min with 100 μl/well of Avidin-HRP. The plate was washed four times with wash buffer and subsequently incubated for 15 min with 100 μl/well of substrate solution. 50 μl of stop solution was added to each well and the plate was read at 450 nm using Gen5 ver 2.05. Delta OD values were used for calculating the concentrations. The absorbance values were plotted against the standards and the concentration of IFN-γ was determined using GraphPad Prism software. Each experimental condition was carried out in triplicates.
The percent rescue of IFN-γ release of the selected compounds of present invention are set forth below wherein “A” refers to compounds having more than 70% rescue of IFN-γ release, “B” refers to compounds having rescue of IFN-γ release ranges from 50% to 69.9% and “C” refers to compounds having less than 50% rescue of IFN-γ release.

T1 sequence (Q9EP73 19-238 limits assumed): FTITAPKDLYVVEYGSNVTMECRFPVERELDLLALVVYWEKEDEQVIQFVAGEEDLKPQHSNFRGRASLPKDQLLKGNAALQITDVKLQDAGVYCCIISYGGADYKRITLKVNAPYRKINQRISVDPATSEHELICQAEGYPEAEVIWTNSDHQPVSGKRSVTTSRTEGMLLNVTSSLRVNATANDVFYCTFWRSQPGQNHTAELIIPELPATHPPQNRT

Compound: CC(O)[C@@H](NC(=O)N[C@@H](CC(N)=O)c1nc([C@@H](N)CO)no1)C(=O)O (stereo partly shown) [Compound 22]
- activity at 0.1 µM (PD-L1): 90%
- TIM-3 (rescue of IFN γ release @ 100 nM) (recombinant human TIM-3): C (less than 50% rescue of IFN-γ release)

Compound: CC(O)[C@H](NC(=O)N[C@@H](CC(N)=O)c1nc(C2(N)CCCC2)no1)C(=O)O (stereo partly shown) [Compound 23]
- activity at 0.1 µM (PD-L1): 47%
- TIM-3 (rescue of IFN γ release @ 100 nM) (recombinant human TIM-3): C (less than 50% rescue of IFN-γ release)

Compound: CC(O)[C@H](NC(=O)N[C@@H](CC(N)=O)c1nc([C@@H](O)CO)no1)C(=O)O (stereo partly shown) [Compound 24]
- activity at 0.1 µM (PD-L1): 65%
- TIM-3 (rescue of IFN γ release @ 100 nM) (recombinant human TIM-3): A (more than 70% rescue of IFN-γ release)

Compound: N=C(N)NCCC[C@H](N)c1noc([C@H](CC(N)=O)NC(=O)N[C@@H](CO)C(=O)O)n1 [Compound 25]
- activity at 0.1 µM (PD-L1): 70%
- TIM-3 (rescue of IFN γ release @ 100 nM) (recombinant human TIM-3): A (more than 70% rescue of IFN-γ release)

Compound: CN[C@@H](CO)c1noc([C@@H](N)CC(N)=O)n1 [Compound 26]
- activity at 0.1 µM (PD-L1): 53%
- TIM-3 (rescue of IFN γ release @ 100 nM) (recombinant human TIM-3): B (rescue of IFN-γ release ranges from 50% to 69.9%)
